Measured values as given in article PMC9164017 (ACS nano, 2021).

Columns and labels:
MeV F (S262R) = MeV F (S262R) (Measles virus, UniProt Q786F3, S262R); format: cell-based; details: 1 μM, 60 min 37 °C, then 10 mM zanamivir; triplicate experiments
MeV F = MeV F (Measles virus, UniProt Q786F3); format: cell-based; details: with or without 3g, coincubation or sequential incubation; Figure S17

SMILES: N#Cc1cccc(NC(=O)Cc2ccccc2)c1 [3g, N-(3-Cyanophenyl)-2-phenylacetamide]
- step of entry at which the compound acts (RBCs released, retained or fused) (MeV F (S262R)): reversibly bound RBC
- colocalization of [FIP–HRC]2–PEG11 with F (MeV F): colocalization is disrupted
